The values below come from US20230382871A1, “CSF1R KINASE INHIBITOR AND USE THEREOF” (SHANGHAI INSTITUTE OF MATERIA MEDICA, CHINESE ACADEMY OF …, priority 2020, published 2023).

Series [1] concerns human glioma U87MG subcutaneous xenografts. Nature of the series: Human glioma U87MG subcutaneous xenografts in nude mice. It counts as in vivo, BALB/c nude mice. The conditions noted are these: 40 mg/kg bid × 21 po. Here is the method:
BALB/c nude female mice of 3-4 weeks old were used, and were provided by […] […] OF MATERIA MEDICA, CHINESE ACADEMY OF SCIENCES.
Human glioma U87MG cells were subcutaneously inoculated into the right axillary fossa of a nude mouse (5×10^6 cells/mouse). After a xenograft was formed, the tumor was transferred to a nude mouse for 1 passage.
Tumor tissues at the vigorous growth stage were removed and cut into pieces of approximately 1.5 mm^3. The tumor fragments were inoculated subcutaneously into the right axillary fossa of nude mice under aseptic conditions. The diameters of the subcutaneous xenografts in nude mice were measured with a vernier caliper. The animals were randomly grouped after the xenografts reached an average volume of about 90 mm^3. Compound I was administered orally at doses of 40 mg/kg, 20 mg/kg and 10 mg/kg twice a day for 21 consecutive days. An equal volume of a blank preparation was administered orally twice a day for 21 consecutive days. The positive control drug Axitinib was administered orally at a dose of 40 mg/kg group twice a day for 21 consecutive days. An equal volume of water for injection was administered to the animals in the solvent group. Throughout the experiment, the diameters of the xenografts were measured twice a week and the mice were weighed at the same time. The tumor volume (TV) was calculated as TV=½×a×b^2, where “a” and “b” denote the length and width of a tumor, respectively. The relative tumor volume (RTV) was calculated from the measurement results with the calculation formula RTV=Vt/V0, in which V0 is the tumor volume measured upon administration after grouping (i.e., D0) and Vt is the tumor volume from each measurement. The evaluation index of anti-tumor activity is the relative tumor proliferation rate T/C (%), which is calculated as T/C (%)=(TRTV/CRTV)×100%, in which TRTV denotes the RTV from the treatment group and CRTV denotes the RTV from solvent group.
Background: In xenograft studies the graft and the host belong to different species.

Series [2] relates to human colorectal cancer HT-29 subcutaneous xenografts. The series is described as follows: Human colorectal cancer HT-29 subcutaneous xenografts in nude mice. The format is in vivo, BALB/c nude mice. The settings on record: 40 mg/kg bid × 21 po. An excerpt: BALB/c female nude mice of 6 weeks old were used, and were provided by Shanghai Lingchang Biotechnology Co., Ltd.
Human colorectal cancer HT-29 cells were subcutaneously inoculated into the right axillary fossa of a nude mouse (5×10^6 cells/mouse). After a xenograft was formed, the tumor was transferred to a nude mouse for 1 passage.
Tumor tissues at the vigorous growth stage were removed and cut into pieces of approximately 1.5 mm^3. The tumor fragments were inoculated subcutaneously into the right axillary fossa of nude mice under aseptic conditions. The diameters of the subcutaneous xenografts in nude mice were measured with a vernier caliper. The animals were randomly grouped after the xenografts reached an average volume of about 120 mm^3. Compound I was administered orally at doses of 20 mg/kg, 10 mg/kg and 5 mg/kg twice a day for 21 consecutive days. An equal volume of a blank preparation was administered orally twice a day for 21 consecutive days. The positive control drug Axitinib was administered orally at a dose of 40 mg/kg group twice a day for 21 consecutive days. An equal volume of water for injection was administered to the animals in the solvent group. Throughout the experiment, the diameters of the xenografts were measured twice a week and the mice were weighed at the same time. The tumor volume (TV) was calculated as TV=½×a×b^2, where “a” and “b” denote the length and width of a tumor, respectively. The relative tumor volume (RTV) was calculated from the measurement results with the calculation formula RTV=Vt/V0, in which V0 is the tumor volume measured upon administration after grouping (i.e., D0) and Vt is the tumor volume from each measurement. The evaluation index of anti-tumor activity is the relative tumor proliferation rate T/C (%), which is calculated as T/C (%)=(TRTV/CRTV)×100%, in which TRTV denotes the RTV from the treatment group and CRTV denotes the RTV from solvent group.

In series [3] the test system is macrophage marker F4/80 in U87MG tumor tissues. Nature of the series: Immunohistochemistry of macrophage marker F4/80 in U87MG tumor tissues. The settings on record: 40 mg/kg, compared with blank preparation group. The format is in vivo, nude mice. Here is the method: (§1) At the end of the in vivo experiments, U87MG and HT-29 xenografts in nude mice were removed and fixed with […] to prepare paraffin sections.
(§2) Expression of individual proteins was assessed using multiplicative quick score method (MQS). This evaluation method takes into account both the staining intensity and the staining range. The method estimates the proportion of positive cells and gives a range score from 1 to 6 (1=1%-4%; 2=5%-19%; 3=20%-39%; 4=40%-59%; 5=60%-79%; 6=80%-100%). The average intensity score of positive stained cells was 0 to 3 (0=no staining; 1=weak staining; 2=moderate staining; 3=strong staining). The total score a (minimum 0 and maximum 18) is then calculated by multiplying the range score by the intensity score.
(§3) For detecting the changes in the macrophage marker F4/80 and M2-type macrophage marker CD206 in the U87MG tumor tissues, quantitative analysis (solvent: n=6, blank preparation: n=6, Compound I (10 mg/kg): n=6, Compound I (20 mg/kg): n=6, Compound I (40 mg/kg): n=6, Axitinib: n=4) was performed on all sections and the experimental data were analyzed for significant differences using the t-test. * denotes p<0.05 as compared with the blank preparation group, ** denotes p<0.01 as compared with the blank preparation group, and denotes p<0.001 as compared with the blank preparation group.

Series [4] deals with M2-type macrophage marker CD206 in U87MG tumor tissues. The series is described as follows: Immunohistochemistry of M2-type macrophage marker CD206 in U87MG tumor tissues. The format is in vivo, nude mice. The conditions noted are these: 40 mg/kg. Here is the method:
as §1, §2, §3

Series [5] relates to macrophage marker F4/80 in HT-29 tumor tissues. Nature of the series: Immunohistochemistry of macrophage marker F4/80 in HT-29 tumor tissues. It counts as in vivo, nude mice. The conditions noted are these: Compound I 5, 10, 20 mg/kg; Axitinib 40 mg/kg. How it is done:
At the end of the in vivo experiments, U87MG and HT-29 xenografts in nude mice were removed and fixed with […] to prepare paraffin sections. Expression of individual proteins was assessed using multiplicative quick score method (MQS). This evaluation method takes into account both the staining intensity and the staining range. […] The average intensity score of positive stained cells was 0 to 3 (0=no staining; 1=weak staining; 2=moderate staining; 3=strong staining). The total score a (minimum 0 and maximum 18) is then calculated by multiplying the range score by the intensity score.

In series [6] the test system is M2-type macrophage marker CD206 in HT-29 tumor tissues. The series is described as follows: Immunohistochemistry of M2-type macrophage marker CD206 in HT-29 tumor tissues. It counts as in vivo, nude mice. The settings on record: Compound I 5, 10, 20 mg/kg; Axitinib 40 mg/kg. How it is done:
as §1, §2
For detecting the changes in the macrophage marker F4/80 and M2-type macrophage marker CD206 in the HT-29 tumor tissues, quantitative analysis (solvent: n=12, blank preparation: n=6, Compound I (5 mg/kg): n=6, Compound I (10 mg/kg): n=6, Compound I (20 mg/kg): n=6, Axitinib: n=6) was performed on all sections and the experimental data were analyzed for significant differences using the t-test. * denotes p<0.05 as compared with the blank preparation group, ** denotes p<0.01 as compared with the blank preparation group, and denotes p<0.001 as compared with the blank preparation group.

Series [7] concerns human glioma U87MG brain in situ transplantation. The series is described as follows: Survival in U87MG brain in situ transplantation model in nude mice. The format is in vivo, BALB/cA nude mice.
The subject of another series is BMDM cells. Nature of the series: CCK8 cell proliferation inhibition assay on CSF1-stimulated bone marrow-derived macrophages. The format is cell-based, mice (BALB/c). The settings on record: Mus musculus, 72 h exposure. Here is the method: Mice (BALB/c) were subjected to euthanasia and then immersed in 75% alcohol for 3-5 min. The tibias and femurs of the mice were removed with ophthalmic forceps and ophthalmic clips on an ultraclean table. The tibial and femoral joints were cut off and bone marrow cells were washed out with a sterile buffer. Bone marrow cells were filtered with a 70 µm nylon membrane. The filtrate was centrifuged and the supernatant was discarded. An erythrocyte lysate was added to the pellets, which were allowed to incubate for 3-4 min. Then, a sterile buffer was added to stop the lysis reaction. The reactant was centrifuged and the supernatant was discarded, thereby yielding bone marrow cell pellets. The cells were cultured in 1640 medium (supplemented with FBS and 10 ng/mL of CSF1) for 5 to 7 days and identified as macrophages by flow cytometry. CCK8 cell counting kits were used in this assay. Bone marrow-derived macrophages, after induction by CSF1 for 5 to 7 days, were seeded into 96-well culture plates and allowed to incubate overnight. Then, the cells were exposed to compounds at various concentrations for 72 h. A blank control group was set. 10 μL of CCK8 reagent was added to each well and the places were placed in an incubator for 4 to 12 h. The plates were read with a microplate reader at a wavelength of 450 nm. […] Each experiment was independently repeated for three times.

For series [8] the following is noted: treated patients; cited from earlier work.
The mark [9] stands for this setting: 40 mg/kg, implantation day as Day 0.

Values joined by “and” are separate entries in the source; they are usually repeats but may differ in a detail not shown here. Equal entries are not always repeated.

As for `CNC(=O)c1ccccc1Sc1ccc2c(/C=C/c3ccccn3)n[nH]c2c1` [Axitinib, reference compound], in series [1] (D 0), the “Body Weight (g) D 0” value came to 16.0 g and the “TV (mm^3, mean ± SD) D 0” value is given as 88 ± 17 mm^3. Also, in [1] (D 21), the “Body Weight (g) D 21” value amounted to 18.0 g; the “RTV (mean ± SD)” value is 9.08 ± 5.66; the “TV (mm^3, mean ± SD) D 21” value was 795 ± 478 mm^3. The “T/C (%)” value in [1] (Day 21) is given as 30.27%. In series [2] (D 0), the “Body Weight (g) D 0” value was 19.1 g and the “TV (mm3, mean ± SD) D 0” value was 123 ± 35 mm3. Moreover, in series [2] (D 21), the “Body Weight (g) D 21” value was 17.5 g; the “RTV (mean ± SD)” value is 4.30 ± 1.82; the “TV (mm3, mean ± SD) D 21” value was determined as 505 ± 202 mm3. For the same compound, the “T/C (%)” value in series [2] (Day 21) is 48.88%. In addition, the “expression of F4/80 in macrophages, U87MG tumor tissue” value in [3] was “no significant effect”. The “expression of M2-type macrophage marker CD206, U87MG tumor tissue” value in series [4] is on record as “no significant effect”. The “expression of F4/80, HT-29 tumor tissue” value in series [5] was “no inhibitory activity”. Also, the “expression of CD206, HT-29 tumor tissue” value in series [6] is “no inhibitory activity”. In series [7] (40 mg/kg po twice a day from Day 8), the “Median survival time, MST” value is 41 days and 41.0 days. Besides, in series [7] (setting [9]), the “day of first death in the group” value came out at 28 days and the “day of last death in the group” value amounted to 48 days. Further, the “ILS (%), Increase in Life Span” value in series [7] (40 mg/kg, vs solvent group MST) was −10.87%.
For orientation: IC50 means the concentration that gives 50% inhibition. Lower therefore signals greater potency. The compound `FC(F)(F)c1ccc(CNc2ccc(Cc3c[nH]c4ncc(Cl)cc34)cn2)cn1` [PLX3397, Pexidartinib, reference compound] yielded a half-inhibitory concentration (IC50) in the series with BMDM cells of 30 ± 9 nM.
As for Yervoy: an anti-CTLA-4 antibody, in series [8], the “patients experiencing immune-related adverse events” value is “up to 60%” and the “share of immune-related adverse events that were severe (grade 3-4)” value is reported as 10-30%.
